Test results published in patent US20190388362A1, “PHARMACEUTICAL COMPOSITION FOR TREATING ORAL PRECANCER AND METHOD FOR PREDICTING OR DIAGNOSING ORAL PRECANCER OR ORAL CANCER” (MET Life Sciences Co., Ltd., priority 2017, published 2019).

What was measured:
Snail [1] = experiment: Snail expression in cell lysate of colorectal cancer cells treated with HCA and BCA; format: cell-based; conditions: at an nM level
Text: (§1) According to the previous research results, it has been known that 2′-Hydroxycinnamaldehyde (HCA), which is a main component of cinnamon, and a derivative thereof, i.e., 2′-benzoyloxycinnamaldehyde (BCA) inhibit cancer metastasis through Snail expression inhibition by inhibiting LRP-1 receptors (Hwang H et al., J Neuroimmunol 2011, 230, 52-64; Ismail I A, et al., Breast Cancer Res Treat, 137, 697-708, 2013). Thus, to confirm whether HCA and BCA are capable of inhibiting Axin2 expression and Snail expression, colorectal cancer cells were treated with HCA and BCA, and it was examined whether Axin2 and Snail were expressed in a cell lysate. As HCA and BCA, those separated from cinnamon bark and purified were used (Hwang H et al., J Neuroimmunol 2011, 230, 52-64). As a result, as illustrated in FIGS. 11A and 11B, it was confirmed that HCA and BCA inhibited the expression of Axin2 and Snail at an nM level.

Axin2 [2] = experiment: Axin2 expression in cell lysate of colorectal cancer cells treated with HCA and BCA; format: cell-based; conditions: at an nM level
Text: as §1

[3] = test system: oral precancer cell line D38; experiment: Cell growth by counting cells in real time, D38; format: cell-based; conditions: as the concentration of niclosamide was increased
Experimental: (§2) The oral cancer cell lines YD-10B and KB and the oral precancer cell line D38 were treated with various concentrations of niclosamide, and cell growth was measured by counting cells in real time.

[4] = test system: oral precancer cell line D38; experiment: Migration assay (crystal violet), D38; format: cell-based; conditions: niclosamide-concentration-dependent
Experimental: (§3) Cell migration is regulated by Axin2 and Snail. In the present example, the YD-10B cell line, the KB cell line, and the oral precancer cell line D38 were treated with niclosamide, a migration assay was performed thereon, and then the cells were stained with crystal violet and cell migration values were measured.

Axin-GSK3 complex = biological target: T1, Axin-GSK3 complex (Homo sapiens, UniProt P49841); experiment: Immunoprecipitation of His-tagged Axin2 from MCF-7 cell lysate, immunoblot for GSK3; format: binding; conditions: MCF-7 cells with His-tagged Axin2, Triton X-100 lysate, Ni-Ti beads
T1 construct: expressed in transfected cells; host or cells: MCF-7 (Axin2 transfected, doxycycline-induced; GSK3 endogenous)
T1 sequence (P49841 whole entry, one chain of several): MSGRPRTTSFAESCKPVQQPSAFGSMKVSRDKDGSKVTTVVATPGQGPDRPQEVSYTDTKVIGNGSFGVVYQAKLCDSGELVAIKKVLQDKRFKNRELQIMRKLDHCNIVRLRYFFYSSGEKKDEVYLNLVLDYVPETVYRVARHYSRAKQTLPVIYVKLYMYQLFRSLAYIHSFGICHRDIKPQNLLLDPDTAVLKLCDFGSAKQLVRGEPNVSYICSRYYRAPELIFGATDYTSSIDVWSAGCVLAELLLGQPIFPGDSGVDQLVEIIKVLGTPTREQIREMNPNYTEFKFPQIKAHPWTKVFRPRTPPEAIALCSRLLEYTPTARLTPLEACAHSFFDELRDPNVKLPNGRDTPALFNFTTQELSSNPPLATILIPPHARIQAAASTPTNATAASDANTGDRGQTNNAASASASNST
Experimental: To confirm whether niclosamide is capable of inhibiting Axin-GSK3 interaction, cell lysates with full-length Axin2 were examined to perform immunoprecipitation experiments in the presence or absence of niclosamide.
An immunoprecipitation assay was performed as follows (Yook J I, et al. Nat Cell Biol. 8:1398-1406, 2006).
A doxycycline-induced His-tagged Axin2 expression vector was transfected into MCF-7 cells (ATCC, American Type Culture collection) and cultured, and a Triton X-100 lysate of whole cells was treated with Ni—Ti beads (Invitrogen) and niclosamide at each concentration to allow a reaction to occur therebetween. Proteins recovered in the beads were subjected to SDS-PAGE, followed by immunoblot analysis for GSK3, and a 1/20 volume of a control was added thereto.

[5] = test system: oral precancer cell line D38; experiment: Soft agar colony formation assay, D38; format: cell-based; conditions: 3 weeks, according to niclosamide treatment concentration
Experimental: (§4) The oral precancer cell line D38 and the oral cancer cell line YD10B were cultured on soft agar plates containing various concentrations of niclosamide. The corresponding concentration of niclosamide was administered while the respective cells were cultured on the soft agar plates for 3 weeks.

[6] = test system: oral precancer cell line D38; experiment: 3D culture model on collagen sheet, D38; format: cell-based; conditions: 0.125 μM niclosamide
Experimental: To confirm the niclosamide treatment effect in a 3D culture model, the results of treatment with 0.125 μM niclosamide when the oral precancer cell line D38 was cultured on a collagen sheet are illustrated in FIG. 17, in part A thereof.

[7] = test system: oral cancer cell line YD10B; experiment: Soft agar colony formation assay, YD10B; format: cell-based; conditions: 3 weeks, according to niclosamide treatment concentration
Experimental: as §4

Snail [8] = experiment: Snail expression in colorectal cancer cell lines treated with niclosamide; format: cell-based; conditions: HCT116, SW480, SW620 and DLD-1 cells; niclosamide at an nM level
[9] = test system: oral cancer cell line YD-10B; experiment: Cell growth by counting cells in real time, YD-10B; format: cell-based; conditions: as the concentration of niclosamide was increased
Experimental: as §2

oral cancer cells YD10B [10] = experiment: YD10B oral cancer cell transplant in immunodeficient mice; format: in vivo; conditions: 200 mg/kg (mpk), orally, daily; Balb/c athymic nude mice with YD10B cells
Text: To confirm the effect of niclosamide on the inhibition of oral cancer in an animal model, oral cancer cells YD10B (3×10^6 cells) were transplanted to immunodeficient mice (Balb/c, athymic nude mice, NaraBiotech), the mice were divided into two groups, and then niclosamide was orally administered to the two groups daily.

recombinant GSK3β = recombinant GSK3β (Homo sapiens, UniProt P49841); experiment: Surface plasma resonance (SPR) analysis on immobilized recombinant GSK3β; format: binding
recombinant GSK3β, sequence (P49841 whole entry): as the sequence (P49841 whole entry, one chain of several) above
Experimental: Surface plasma resonance (SPR) analysis was performed to confirm whether niclosamide directly binds to GSK3. SPR was conducted using the ProteOn™ XPR36 Protein Interaction Array system (Bio-Rad Laboratories, Inc., CA, USA), and purified recombinant GSK3β, was immobilized to a ProteOn GLH sensor chip. Niclosamide or 19-mer wild type Axin peptide or mutant peptide (VEPQKAAEEAIHRAEAVQR, mutation underlined) were diluted by phosphate-buffered saline+Tween 20+1% DMSO at different concentrations and then flowed over the chip at a rate of 100 μl/min. The results thereof were analyzed by ProteOn Manager Software 2.0 using the standard Langmuir models for fitting kinetic data. The rate of complex formation was represented by the association constant (ka, in the unit of M-1s-1), and the rate of complex decay was represented by the dissociation constant (kd, in the unit of s-1), as given by Equation 1 below.
A high-affinity interaction is represented by a low dissociation constant, and rapid recognition and binding with interactants (rapid “on rate,” or high ka) and the stability of complex formation (slow “off rate,” or low kd) are as shown in the following equation: KD=kd/ka.

Axin2 [11] = experiment: Axin2 expression in colorectal cancer cell lines treated with niclosamide; format: cell-based; conditions: HCT116, SW480, SW620 and DLD-1 cells; niclosamide at an nM level
[12] = biological target: T2, recombinant GSK3 beta / Axin peptide interaction (Homo sapiens, UniProt P49841); experiment: Competitive inhibition of recombinant GSK3 binding to FITC-conjugated 19-mer Axin peptide (bead fluorescence); conditions: in proportionate to the concentration of niclosamide added; 2 hours
T2 construct: made in house; host or cells: Sf9 insect cells (GSK3 beta); peptide chemically synthesized (Peptron)
T2 sequence (P49841 whole entry): as the sequence (P49841 whole entry, one chain of several) above
Text: In the previously reported results of analyzing the structure of Axin-GSK3 binding, accumulation of the hydrophobic residues of Axin α-helix into a hydrophobic groove formed by the C-terminal loop of GSK3 is disclosed (Dajani R et al., EMBO J. 22:494-501, 2003), and thus the inventors of the present invention hypothesized that niclosamide would bind to the hydrophobic groove of GSK3 and interfere with the function of Axin. To verify this, in vitro analysis was designed to identify competitive inhibition of recombinant GSK3 binding to 19-mer FITC-conjugated Axin peptides by niclosamide.
Hig-tagged recombinant GSK3 beta was obtained from sf9 insect cells using a known method (Lee D G, et al. Nat Commun. 5:4423, 2014). The FITC-conjugated 19-mer Axin peptide (Axin1, 383-401, VEPQKFAEELIHRLEAVQR), which is known to bind to GSK3 as an amphipathic α-helix, was chemically synthesized (Peptron). To confirm competitive binding between the synthesized Axin peptide and niclosamide, His-tagged recombinant GSK3 and Ni—Ti beads were treated with niclosamide for 2 hours, and then washed three times with PBS, and quantitative fluorescence measurement was performed using Ni—Ti beads. Fluorescence intensity was represented in proportionate to the fluorescence intensity of a negative control from the 3rd experiment.

oral cancer cells YD10B [13] = experiment: 3D culture model, YD10B; format: cell-based; conditions: YD10B three-dimensionally cultured, 0.125 μM niclosamide
Axin2 [14] = experiment: Western blotting of Axin2 in oral cancer and oral precancer cell lines; format: cell-based; conditions: YD-10B, KB and D38 cell lines, 16 hours
Text: (§5) The expression of Axin2 and Snail was confirmed in a cell lysate after treating YD-10B (CVCL-8929) and KB (CVC_L 0372), which are oral cancer cell lines, and D38, which is an oral precancer cell line (McGregor F. et al., CANCER RESEARCH 62, 4757-4766, 2002), with various concentrations of niclosamide by using the same method of Example 5.
(§6) For the YD-10B and KB cell lines, a RPMI1640 medium containing 10% FBS and 1% penicillin/streptomycin was used. For the oral precancer cell line D38, a DMEM: F12 (3:1) medium containing 10% FBS and 1% penicillin/streptomycin was used. The respective cells were treated with niclosamide at the indicated concentration for 16 hours and the expression of Axin2 and Snail was analyzed through western blotting.

[15] = test system: oral precancer cell line D38; experiment: Trypan exclusion assay for apoptosis; format: cell-based; conditions: D38, 72 hours, concentration-dependent
Experimental: The oral precancer cell line D38 was treated with various concentrations of niclosamide for 72 hours and apoptosis was confirmed through a trypan exclusion assay.

oral cancer cell line KB = experiment: Cell growth by counting cells in real time, KB; format: cell-based; conditions: as the concentration of niclosamide was increased
Experimental: as §2

KB cell line = experiment: Migration assay (crystal violet), KB; format: cell-based; conditions: niclosamide-concentration-dependent
Experimental: as §3

Snail [16] = experiment: Western blotting of Snail in oral cancer and oral precancer cell lines; format: cell-based; conditions: YD-10B, KB and D38 cell lines, 16 hours
Text: as §5, §6

YD-10B cell line = experiment: Migration assay (crystal violet), YD-10B; format: cell-based; conditions: niclosamide-concentration-dependent
Experimental: as §3

Compound: O=CC=Cc1ccccc1OC(=O)c1ccccc1 [BCA, 2′-benzoyloxycinnamaldehyde]
- expression of Snail (Snail [1]): inhibited
- expression of Axin2 (Axin2 [2]): inhibited

Compound: O=CC=Cc1ccccc1O [HCA, 2′-Hydroxycinnamaldehyde]
- expression of Snail (Snail [1]): inhibited
- expression of Axin2 (Axin2 [2]): inhibited

Compound: O=C(Nc1ccc([N+](=O)[O-])cc1Cl)c1cc(Cl)ccc1O [niclosamide]
- cell growth [3]: inhibited
- cell migration [4]: inhibited
- GSK3 that binds to Axin2 in a total cell lysate (Axin-GSK3 complex): reduced
- colony formation [5]: inhibited
- cell density [6]: reduced
- keratinocytic differentiation [6]: induced
- basal membrane ([6]; destroyed in control): smooth basal membrane was observed
- colony formation [7]: inhibited
- Snail expression (Snail [8]): decreased
- cell growth [9]: inhibited
- volume of tumors (oral cancer cells YD10B [10]): reduced
- direct binding to GSK3 (recombinant GSK3β): directly bound
- Kd (recombinant GSK3β; GSK3β immobilized on sensor chip, read-out: equilibrium dissociation constant KD): 34 µM
- Axin2 expression (Axin2 [11]): decreased
- interaction between the recombinant GSK3 and the synthesized Axin peptide [12]: inhibited
- invasiveness of cancer cells (oral cancer cells YD10B [13]): rapidly reduced
- expression of Axin2 (Axin2 [14]): inhibited
- apoptosis [15]: occurred
- cell growth (oral cancer cell line KB): inhibited
- cell migration (KB cell line): inhibited
- expression of Snail (Snail [16]): inhibited
- cell migration (YD-10B cell line): inhibited

Compound: CC[C@H](C)[C@H](NC(=O)[C@H](CC(C)C)NC(=O)[C@H](CCC(=O)O)NC(=O)[C@H](CCC(=O)O)NC(=O)[C@H](C)NC(=O)[C@H](Cc1ccccc1)NC(=O)[C@H](CCCCN)NC(=O)[C@H](CCC(N)=O)NC(=O)[C@@H]1CCCN1C(=O)[C@H](CCC(=O)O)NC(=O)[C@@H](N)C(C)C)C(=O)N[C@@H](Cc1c[nH]cn1)C(=O)N[C@@H](CCCNC(=N)N)C(=O)N[C@@H](CC(C)C)C(=O)N[C@@H](CCC(=O)O)C(=O)N[C@@H](C)C(=O)N[C@H](C(=O)N[C@@H](CCC(N)=O)C(=O)N[C@@H](CCCNC(=N)N)C(=O)O)C(C)C [wild type Axin peptide]
- direct binding to GSK3 (recombinant GSK3β): directly bound

Compound: Mutant Axin peptide: mutant 19-mer Axin peptide VEPQKAAEEAIHRAEAVQR, mutations on hydrophobic residues
- binding to GSK3 protein immobilized on a sensor surface (recombinant GSK3β; up to 100 μM): unable to bind
